# According to patent US6897222B2, “Pyrido[2,1-a]isoquinoline derivatives” (Hoffmann-La Roche Inc., priority 2001, dated 2005):
# Target: T1, human DPP-IV (Homo sapiens, UniProt P27487)
# T1 construct: made in house; host or cells: Pichia pastoris
# Assay: DPP-IV activity assay (fluorogenic or colorimetric), IC50 determination
# Type: biochemical
# Conditions: natural human DPP-IV from plasma pool or recombinant human DPP-IV; substrate 50 μM (fluorogenic) or 200 μM (colorimetric); 37° C., pH 7.8
# Protocol: Activity of DPP-IV inhibitors are tested with natural human DPP-IV derived from a human plasma pool or with recombinant human DPP-IV. Human citrate plasma from different donors is pooled, filtered through a 0.2 micron membrane under sterile conditions and aliquots of 1 ml are shock frozen and stored at −120° C. until used. In the colorimetric DPP-IV assay 5 to 10 μl human plasma and in the fluorometric assay 1.0 μl of human plasma in a total assay volume of 100 μl is used as an enzyme source. […] Human DPP-IV is expressed and purified from the culture medium using conventional column chromatography including size exclusion and anion and cation chromatography. […] In the colorimetric DPP-IV assay 20 ng rec.-h DPP-IV and in the fluorometric assay 2 ng rec-h DPP-IV in a total assay volume of 100 μl is used as an enzyme source.
# A 20 mM stock solution in 10% DMF/H2O is stored at −20° C. until use.
# In the colorimetric assay H-Ala-Pro-pNA. […] A 10 mM stock solution in 10% MeOH/H2O is stored at −20° C. until use.
# Initial rate constants are calculated by best fit linear regression.
# DPP-IV activity assays are performed in 96 well plates at 37° C. in a total assay volume of 100 μl. The assay buffer consists of 50 mM Tris/HCl pH 7.8 containing 0.1 mg/ml BSA and 100 mM NaCl. Test compounds are solved in 100% DMSO, diluted to the desired concentration in 10% DMSO/H2O. The final DMSO concentration in the assay is 1% (v/v).
# Compounds are with (10 minutes at 37° C.) and without preincubation with the enzyme. Enzyme reactions are started with substrate application followed by immediate mixing.
# Kinetic parameters of the enzyme reaction are calculated at at least 5 different substrate concentrations and at least 5 different test compound concentrations.
# T1 sequence (P27487 31-766): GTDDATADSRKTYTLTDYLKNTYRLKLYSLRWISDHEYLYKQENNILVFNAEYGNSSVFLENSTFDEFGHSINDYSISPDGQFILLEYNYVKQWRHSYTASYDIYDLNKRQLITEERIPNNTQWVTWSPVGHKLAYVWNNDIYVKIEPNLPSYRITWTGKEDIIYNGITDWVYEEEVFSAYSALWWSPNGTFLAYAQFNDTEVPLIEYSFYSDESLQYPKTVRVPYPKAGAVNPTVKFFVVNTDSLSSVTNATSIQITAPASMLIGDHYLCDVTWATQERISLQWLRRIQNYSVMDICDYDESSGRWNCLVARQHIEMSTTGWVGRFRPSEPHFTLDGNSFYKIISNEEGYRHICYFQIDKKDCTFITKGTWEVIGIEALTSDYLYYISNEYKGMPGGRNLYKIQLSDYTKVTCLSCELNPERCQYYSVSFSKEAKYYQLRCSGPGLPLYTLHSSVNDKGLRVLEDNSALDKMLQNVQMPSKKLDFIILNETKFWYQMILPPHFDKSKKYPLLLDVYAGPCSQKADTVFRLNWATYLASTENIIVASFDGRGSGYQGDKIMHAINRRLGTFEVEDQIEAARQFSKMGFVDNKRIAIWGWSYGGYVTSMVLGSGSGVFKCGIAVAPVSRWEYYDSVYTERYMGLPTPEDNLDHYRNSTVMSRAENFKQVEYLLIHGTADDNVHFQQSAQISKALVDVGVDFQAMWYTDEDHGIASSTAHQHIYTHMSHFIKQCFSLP
row,Structure (SMILES),IC50
1,"CCCCC1CN2C(CC1N)c1cc(OC)c(OC)cc1C1CCCCC12 (mixture of isomers) [Example 17, rac-7β-Butyl-11,12-dimethoxy-2,3,4,4a,6,7,8,9,9a,13bβ-decahydro-1H-pyrido[1,2-f]phenanthridin-8β-ylamine]",140 nM
2,"COc1cc2c(cc1OC)C1CC(N)C(CCC(C)C)CN1CC2 (racemic) [Example 5, rac-9,10-Dimethoxy-3β-(3-methyl-butyl)-1,3,4,6,7,11bβ-hexahydro-2H-pyrido[2,1-a]isoquinolin-2α-ylamine]",570 nM
3,"CCCCC1CN2C(CC1N)c1cc(OC)c(OC)cc1C1CCCCC12 (racemic) [Example 36, rac-7β-Butyl-11,12-dimethoxy-2,3,4,4a,6,7,8,9,9a,13bβ-decahydro-1H-pyrido[1,2-f]phenanthridin-8β-ylamine chlorohydrate (1:2)]",160 nM

# The remaining lines, values ahead:
row,IC50,Structure (SMILES)
1,620 nM,"CCCC[C@@H]1CN2CCc3cc(O)c(OC)cc3[C@H]2C[C@H]1N (racemic) [Example 39, rac-2α-Amino-3β-butyl-10-methoxy-1,3,4,6,7,11bβ-hexahydro-2H-pyrido[2,1-a]isoquinolin-9-ol chlorohydrate (1:2)]"
2,340 nM,"CCCCC1CN2CCc3cc(O)c(OC)cc3C2CC1N (racemic) [Example 43b, rac-2α-amino-3β-butyl-10-methoxy-1,3,4,6,7,11bβ-hexahydro-2H-pyrido[2,1-a]isoquinolin-9-ol]"
